How the values were obtained:
[1] = Henry solubility constant Hcp at 295 K (mol/(m3 Pa))
[2] = Henry solubility constant Hcp at 298.15 K (mol/(m3 Pa))
[3] = Henry solubility constant Hcp at 291 K (mol/(m3 Pa)); conditions: reference: Treves et al. (2000)
[4] = Henry solubility constant Hcp at 278 K (mol/(m3 Pa)); conditions: reference: Sauer (1997)
[5] = Henry solubility constant Hcp at 296 K (mol/(m3 Pa))
[6] = Henry solubility constant Hcp at 303 K (mol/(m3 Pa)); conditions: reference: Saylor et al. (1938)
[7] = Henry solubility constant Hcp at 293 K (mol/(m3 Pa))
[8] = Henry solubility constant Hcp at 288 K (mol/(m3 Pa)); conditions: reference: Pividal et al. (1992)
[9] = reference: O’Sullivan et al. (1996)

Structure (SMILES): [CH3][Hg][Cl] [chloromethylmercury]
- Henry solubility constant Hcp at 295 K ([1]; reference: Talmi and Mesmer (1975)): 15
- Henry solubility constant Hcp ([2]; reference: Iverfeldt and Lindqvist (1982)): 22

Structure (SMILES): CCC(CO)O[N+](=O)[O-] (configuration not stated) [2-nitrooxy-1-butanol]
- Henry solubility constant Hcp at 291 K [3]: 88

Structure (SMILES): COO [methyl hydroperoxide]
- Henry solubility constant Hcp ([2]; reference: Li et al. (2004)): 2.5
- Henry solubility constant Hcp ([2]; reference: Lind and Kok (1994)): 3
- Henry solubility constant Hcp ([2]; reference: Magi et al. (1997)): > 6.9
- Henry solubility constant Hcp [2, 9]: 3.1
- Henry solubility constant Hcp at 278 K [4]: 12

Structure (SMILES): c1ccccc1 [benzene]
- Henry solubility constant Hcp at 295 K ([1]; reference: de Wolf and Lieder (1998)): 0.0022
- Henry solubility constant Hcp at 296 K ([5]; reference: Anderson (1992)): 0.0018
- Henry solubility constant Hcp at 296 K ([5]; reference: Miller and Stuart (2000)): 0.0018
- Henry solubility constant Hcp ([2]; reference: Alaee et al. (1996)): 0.0018
- Henry solubility constant Hcp ([2]; reference: Allen et al. (1998)): 0.0018
- Henry solubility constant Hcp ([2]; reference: Bakierowska and Trzeszczyński (2003)): 0.0018
- Henry solubility constant Hcp ([2]; reference: Bierwagen and Keller (2001)): 0.0019
- Henry solubility constant Hcp ([2]; reference: Bissonette et al. (1990)): 0.0016
- Henry solubility constant Hcp ([2]; reference: Brown and Wasik (1974)): 0.0017
- Henry solubility constant Hcp ([2]; reference: Cooling et al. (1992)): 0.0017
- Henry solubility constant Hcp ([2]; reference: Ervin et al. (1980)): 0.0012
- Henry solubility constant Hcp ([2]; reference: Ettre et al. (1993)): 0.0018
- Henry solubility constant Hcp ([2]; reference: Green and Frank (1979)): 0.0018
- Henry solubility constant Hcp ([2]; reference: Görgényi et al. (2002)): 0.0017
- Henry solubility constant Hcp ([2]; reference: Hartkopf and Karger (1973)): 0.0021
- Henry solubility constant Hcp ([2]; reference: Keeley et al. (1988)): 0.0017
- Henry solubility constant Hcp ([2]; reference: Khalfaoui and Newsham (1994b)): 0.0017
- Henry solubility constant Hcp ([2]; reference: Lau et al. (2010)): 0.0014
- Henry solubility constant Hcp ([2]; reference: Lei et al. (2004)): 0.0014
- Henry solubility constant Hcp ([2]; reference: Li et al. (2008)): 0.0018
- Henry solubility constant Hcp ([2]; reference: Lodge and Danso (2007)): 0.0025
- Henry solubility constant Hcp ([2]; reference: Mackay et al. (1979)): 0.0018
- Henry solubility constant Hcp ([2]; reference: Nielsen et al. (1994)): 0.002
- Henry solubility constant Hcp ([2]; reference: Park et al. (1997)): 0.0014
- Henry solubility constant Hcp ([2]; reference: Peng and Wan (1997)): 0.0019
- Henry solubility constant Hcp ([2]; reference: Peng and Wan (1998)): 0.0022
- Henry solubility constant Hcp ([2]; reference: Perlinger et al. (1993)): 0.0017
- Henry solubility constant Hcp ([2]; reference: Robbins et al. (1993)): 0.0018
- Henry solubility constant Hcp ([2]; reference: Sanemasa et al. (1981)): 0.0017
- Henry solubility constant Hcp ([2]; reference: Sieg et al. (2009)): 0.0017
- Henry solubility constant Hcp ([2]; reference: Tsibul’skii et al. (1979)): 0.0016
- Henry solubility constant Hcp ([2]; reference: Tsonopoulos and Wilson (1983)): 0.0018
- Henry solubility constant Hcp ([2]; reference: Turner et al. (1996)): 0.0016
- Henry solubility constant Hcp ([2]; reference: Vitenberg et al. (1975)): 0.0018
- Henry solubility constant Hcp ([2]; reference: Warner et al. (1980)): 0.0018
- Henry solubility constant Hcp ([2]; reference: Wasik and Tsang (1970)): 0.0016
- Henry solubility constant Hcp at 303 K [6]: 0.0015
- Henry solubility constant Hcp at 293 K ([7]; reference: Vitenberg et al. (1974)): 0.0012
- Henry solubility constant Hcp at 293 K ([7]; reference: Yu (1992)): 0.0019
- Henry solubility constant Hcp at 293 K ([7]; reference: Yurteri et al. (1987)): 0.0013

Structure (SMILES): CC(=O)OO [ethanoic peroxyacid]
- Henry solubility constant Hcp ([2]; reference: Lind and Kok (1994)): 6.5
- Henry solubility constant Hcp [2, 9]: 8.3
- Henry solubility constant Hcp at 278 K [4]: 24

Structure (SMILES): CC(C)O [2-propanol]
- Henry solubility constant Hcp at 288 K [8]: 1.4
- Henry solubility constant Hcp ([2]; reference: Butler et al. (1935)): 1.2
- Henry solubility constant Hcp ([2]; reference: Kim et al. (2000)): 1.1
- Henry solubility constant Hcp ([2]; reference: Lin and Chou (2006)): 1.3
- Henry solubility constant Hcp ([2]; reference: Snider and Dawson (1985)): 1.2
- Henry solubility constant Hcp at 293 K ([7]; reference: Yu (1992)): 0.98

— Sander's compilation of Henry's law constants
